Experimental findings from ChEMBL document CHEMBL2029289, “Structure-activity relationship study of a CXC chemokine receptor type 4 antagonist, FC131, using a series of alkene dipeptide isosteres” (J Med Chem, 2012) are described below.

SMILES strings stand for the structures. pIC50: −log10 of the molar value. Where only a bound is given, the exact number is not on record here.

This test deals with C-X-C chemokine receptor type 4 (Homo sapiens, UniProt P61073). The test can be described thus: Displacement of [125I]SDF-1alpha from CXCR4 expressed in HEK293 cell membrane after 1 hr. In kind it is cell membranes.
Sequence of C-X-C chemokine receptor type 4 (P61073 whole entry): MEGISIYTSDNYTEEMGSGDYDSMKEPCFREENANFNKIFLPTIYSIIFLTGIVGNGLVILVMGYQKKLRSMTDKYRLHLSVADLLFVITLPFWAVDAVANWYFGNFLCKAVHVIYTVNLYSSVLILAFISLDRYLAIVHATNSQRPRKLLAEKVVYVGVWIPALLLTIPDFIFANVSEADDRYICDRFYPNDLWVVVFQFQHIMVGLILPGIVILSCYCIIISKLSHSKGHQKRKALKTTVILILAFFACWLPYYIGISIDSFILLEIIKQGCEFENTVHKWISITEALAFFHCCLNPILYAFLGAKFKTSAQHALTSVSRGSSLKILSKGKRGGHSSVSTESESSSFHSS

One may read the pIC50 as −log10 of the IC50, conventionally taken in molar units. A high value points to a low IC50. In turn, `CN1C(=O)[C@@H](Cc2ccc(O)cc2)NC(=O)CNC(=O)[C@H](Cc2ccc3ccccc3c2)NC(=O)[C@H](CCCN=C(N)N)NC(=O)[C@H]1CCCN=C(N)N` showed a pIC50 of 7.20.
As to `NC(N)=NCCC[C@H]1/C=C/[C@@H](Cc2ccc(O)cc2)NC(=O)CNC(=O)[C@H](Cc2ccc3ccccc3c2)NC(=O)[C@H](CCCN=C(N)N)NC1=O`, the pIC50 was 6.48. This pIC50 is 0.72 log units lower than that of the compound before.
In turn, `C/C1=C(/C)[C@@H](Cc2ccc(O)cc2)NC(=O)CNC(=O)[C@H](Cc2ccc3ccccc3c2)NC(=O)[C@H](CCCNC(=N)N)NC(=O)[C@H]1CCCNC(=N)N` showed a pIC50 of 5.60. This pIC50 lies 0.88 log units lower than the previous one.
`C/C1=C\[C@H](CCCNC(=N)N)C(=O)N[C@@H](CCCNC(=N)N)C(=O)N[C@@H](Cc2ccc3ccccc3c2)C(=O)NCC(=O)N[C@@H]1Cc1ccc(O)cc1`: the pIC50 is 6.30.
The compound `NC(N)=NCCC[C@H]1CC[C@H](Cc2ccc(O)cc2)NC(=O)CNC(=O)[C@H](Cc2ccc3ccccc3c2)NC(=O)[C@H](CCCN=C(N)N)NC1=O` gave a pIC50 below 5.00.
On to `C/C1=C(/C)[C@@H](CCCNC(=N)N)C(=O)N[C@@H](CCCNC(=N)N)C(=O)N[C@@H](Cc2ccc3ccccc3c2)C(=O)NCC(=O)N[C@@H]1Cc1ccc(O)cc1`, for which the pIC50 was 7.00.
Next, `CN1C(=O)[C@@H](Cc2ccc(O)cc2)NC(=O)CNC(=O)[C@H](Cc2ccc3ccccc3c2)NC(=O)[C@H](CCCNC(=N)N)NC(=O)[C@@H]1CCCNC(=N)N`: 6.54.
